Calls of active or inactive are those of the source. The calls are words filed in the database; no cut-off is given here.
Legend:
Assay type in all cases: functional, cell-based
[1] = tested on: RAW264.7; experiment: Antiinflammatory activity in mouse RAW264.7 cells assessed as inhibition of LPS-induced COX2 mRNA expression at 10 uM preincubated for 30 mins followed by LPS-stimulation and measured after 18 hrs by QuantiFast SYBR Green dye based RT-PCR analysis
[2] = tested on: RAW264.7; experiment: Antiinflammatory activity in mouse RAW264.7 cells assessed as inhibition of LPS-induced COX2 mRNA expression preincubated for 30 mins followed by LPS-stimulation and measured after 18 hrs by QuantiFast SYBR Green dye based RT-PCR analysis
[3] = tested on: RAW264.7; experiment: Antiinflammatory activity in mouse RAW264.7 cells assessed as inhibition of LPS-induced COX2 expression at 1 to 10 uM preincubated for 30 mins followed by LPS-stimulation and measured after 18 hrs by Western blot analysis
[4] = tested on: RAW264.7; experiment: Antiinflammatory activity in mouse RAW264.7 cells assessed as inhibition of LPS-induced PGE2 formation preincubated for 30 mins followed by LPS-stimulation and measured after 18 hrs by ELISA
[5] = tested on: RAW264.7; experiment: Antiinflammatory activity in mouse RAW264.7 cells assessed as inhibition of LPS-induced COX2 mRNA expression at 50 uM preincubated for 30 mins followed by LPS-stimulation and measured after 18 hrs by QuantiFast SYBR Green dye based RT-PCR analysis

Row | SMILES | inhibition [1] | inhibition [2] | inhibition [3] | inhibition [4] | inhibition [5]
1 | CC(C)[C@@H](O)[C@H]1CC[C@@]2(C)[C@@H]1[C@]1(C)CC[C@H]2O1 | Active | Dose-dependent effect | Active | Dose-dependent effect | –
2 | CC1(C)[C@H]2[C@H]3[C@@H](CC[C@]3(C)O)[C@](C)(O)CC[C@H]21 | Active | Dose-dependent effect | Active | – | –
3 | Cc1cnc(NC(=O)C2=C(O)c3ccccc3S(=O)(=O)N2C)s1 | – | – | – | – | Active
4 | C[C@@H]1CC[C@H]2[C@@H]1[C@H]1[C@@H](CC[C@@]2(C)O)C1(C)C | Active | Dose-dependent effect | Active | – | –

Reference: ChEMBL document CHEMBL4392840, “Further sesquiterpenoids from the rhizomes of Homalomena occulta and their anti-inflammatory activity” (Bioorg Med Chem Lett, 2019)
